The test deals with microscopic organisms. The experiment in a line: Antimicrobial effect of ICG under irradiation with light (photodynamic), infections on gingiva and teeth. Particulars: more particularly laser light, wavelength 780 to 830 nm.

In the case of `CC1(C)C(/C=C/C=C/C=C/C=C2\N(CCCCS(=O)(=O)O)c3ccc4ccccc4c3C2(C)C)=[N+](CCCCS(=O)(=O)[O-])c2ccc3ccccc3c21` [ICG, Indocyanine green], the “effect against microscopic organisms, more particularly an antimicrobial effect” value is on record as “outstanding effect”.
